Source: publication PMC11233931, “Remodeling tumor‐associated macrophage for anti‐cancer effects by rational design of irreversible inhibition of mitogen‐activated protein kinase‐activated protein kinase 2” (MedComm, 2024)
Where two headings read alike, the source gives them in different places.

Legend:
Assay in all cases: Eurofins kinase selectivity profile against 380 other human recombinant kinases (Table S2)
Type in all cases: biochemical
[1] = target: T1, 380 human recombinant protein kinases (Homo sapiens, UniProt P41240); conditions: CSK(h), read-out: Inhibition rate
T1 construct: purchased Eurofins (Celle Lévescault)
T1 sequence (P41240 whole entry): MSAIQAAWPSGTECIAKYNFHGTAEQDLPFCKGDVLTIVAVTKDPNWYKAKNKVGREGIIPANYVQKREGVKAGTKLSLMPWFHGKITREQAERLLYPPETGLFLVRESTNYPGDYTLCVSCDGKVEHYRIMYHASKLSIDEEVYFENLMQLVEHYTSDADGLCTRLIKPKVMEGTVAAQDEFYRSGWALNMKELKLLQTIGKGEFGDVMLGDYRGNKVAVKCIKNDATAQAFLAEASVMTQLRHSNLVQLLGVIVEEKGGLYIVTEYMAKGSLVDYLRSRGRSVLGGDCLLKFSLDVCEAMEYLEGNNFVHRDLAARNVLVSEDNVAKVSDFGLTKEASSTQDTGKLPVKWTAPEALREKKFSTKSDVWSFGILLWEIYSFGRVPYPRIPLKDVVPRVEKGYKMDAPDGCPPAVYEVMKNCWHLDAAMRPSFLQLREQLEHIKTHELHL
In short: (§1)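 Values come from a contract kinase-profiling service that tested the compound at multiple concentrations across 380 recombinant human kinases, as an off-target check against the MK2 activity.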

[2] = target: T2, 380 human recombinant protein kinases (Homo sapiens, UniProt Q16816); conditions: PhKγ1(h), read-out: Inhibition rate
T2 construct: purchased Eurofins (Celle Lévescault)
T2 sequence (Q16816 whole entry): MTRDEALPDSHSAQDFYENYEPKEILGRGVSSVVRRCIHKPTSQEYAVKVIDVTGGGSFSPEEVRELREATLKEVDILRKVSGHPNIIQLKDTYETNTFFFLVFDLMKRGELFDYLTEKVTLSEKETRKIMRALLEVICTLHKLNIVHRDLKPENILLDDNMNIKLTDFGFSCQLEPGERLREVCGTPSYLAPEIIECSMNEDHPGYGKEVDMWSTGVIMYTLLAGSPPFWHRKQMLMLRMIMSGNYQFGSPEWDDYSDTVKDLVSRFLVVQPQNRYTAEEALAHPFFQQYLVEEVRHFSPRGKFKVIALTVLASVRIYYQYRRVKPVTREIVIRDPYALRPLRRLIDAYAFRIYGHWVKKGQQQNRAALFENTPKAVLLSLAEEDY
In short: as §1

[3] = target: T3, 380 human recombinant protein kinases (Homo sapiens, UniProt P00519, Q252H); conditions: Abl (Q252H) (h), read-out: Inhibition rate
T3 construct: purchased Eurofins (Celle Lévescault)
In short: as §1

[4] = target: T4, 380 human recombinant protein kinases (Homo sapiens, UniProt P21802); conditions: FGFR2(h), read-out: Inhibition rate
T4 construct: purchased Eurofins (Celle Lévescault)
In short: as §1

[5] = target: T5, 380 human recombinant protein kinases (Homo sapiens, UniProt Q00535); conditions: read-out: Inhibition rate; for inhibition at 0.01 µM: 10 nM; for inhibition at 0.1 µM: 100 nM; for inhibition at 1 µM: 1000 nM
T5 construct: purchased Eurofins (Celle Lévescault)
T5 sequence (Q00535 whole entry): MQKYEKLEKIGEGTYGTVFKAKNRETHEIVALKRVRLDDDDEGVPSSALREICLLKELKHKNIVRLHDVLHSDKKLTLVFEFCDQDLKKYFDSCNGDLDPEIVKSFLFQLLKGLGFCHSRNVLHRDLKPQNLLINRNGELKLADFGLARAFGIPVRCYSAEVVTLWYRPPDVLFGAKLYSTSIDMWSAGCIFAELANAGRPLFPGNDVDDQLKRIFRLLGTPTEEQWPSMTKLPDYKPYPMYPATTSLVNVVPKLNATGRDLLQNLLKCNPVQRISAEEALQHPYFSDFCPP
In short: as §1

[6] = target: T6, 380 human recombinant protein kinases (Homo sapiens, UniProt P68400); conditions: read-out: Inhibition rate; for inhibition at 0.01 µM: 10 nM; for inhibition at 0.1 µM: 100 nM; for inhibition at 1 µM: 1000 nM
T6 construct: purchased Eurofins (Celle Lévescault)
In short: as §1

[7] = target: T7, 380 human recombinant protein kinases (Homo sapiens, UniProt Q9UQM7); conditions: CaMKIIα(h), read-out: Inhibition rate
T7 construct: purchased Eurofins (Celle Lévescault)
T7 sequence (Q9UQM7 whole entry): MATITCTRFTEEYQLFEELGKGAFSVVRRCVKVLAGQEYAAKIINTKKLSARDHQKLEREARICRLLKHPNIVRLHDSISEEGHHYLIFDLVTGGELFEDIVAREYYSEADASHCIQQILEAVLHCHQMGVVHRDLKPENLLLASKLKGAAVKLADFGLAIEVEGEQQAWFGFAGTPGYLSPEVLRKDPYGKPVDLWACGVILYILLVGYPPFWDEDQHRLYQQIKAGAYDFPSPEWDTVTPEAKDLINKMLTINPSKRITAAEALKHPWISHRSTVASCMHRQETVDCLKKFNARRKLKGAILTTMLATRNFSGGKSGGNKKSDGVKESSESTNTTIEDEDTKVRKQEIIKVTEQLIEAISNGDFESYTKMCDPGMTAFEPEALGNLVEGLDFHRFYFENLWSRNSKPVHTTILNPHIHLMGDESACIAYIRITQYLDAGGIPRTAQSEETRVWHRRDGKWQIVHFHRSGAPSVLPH
In short: as §1

[8] = target: T8, 380 human recombinant protein kinases (Homo sapiens, UniProt Q13882); conditions: BRK(h), read-out: Inhibition rate
T8 construct: purchased Eurofins (Celle Lévescault)
T8 sequence (Q13882 whole entry): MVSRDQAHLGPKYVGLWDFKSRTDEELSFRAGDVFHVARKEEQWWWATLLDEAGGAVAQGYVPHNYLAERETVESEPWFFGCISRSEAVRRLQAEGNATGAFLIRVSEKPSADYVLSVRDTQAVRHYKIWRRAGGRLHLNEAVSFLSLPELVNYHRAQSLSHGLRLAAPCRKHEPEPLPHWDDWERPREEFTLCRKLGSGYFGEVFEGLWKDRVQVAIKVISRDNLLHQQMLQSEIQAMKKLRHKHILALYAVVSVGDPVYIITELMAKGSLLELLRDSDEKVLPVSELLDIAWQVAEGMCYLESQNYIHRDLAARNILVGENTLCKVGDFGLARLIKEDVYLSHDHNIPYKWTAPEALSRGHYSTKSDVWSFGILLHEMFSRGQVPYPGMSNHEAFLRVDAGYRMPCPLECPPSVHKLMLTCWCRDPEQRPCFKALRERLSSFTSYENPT
In short: as §1

[9] = target: T9, 380 human recombinant protein kinases (Homo sapiens, UniProt O00443); conditions: PI3KC2α(h), read-out: Inhibition rate (%)
T9 construct: purchased Eurofins (Celle Lévescault)
In short: as §1

[10] = target: T10, 380 human recombinant protein kinases (Homo sapiens, UniProt O43781); conditions: DYRK3(h), read-out: Inhibition rate
T10 construct: purchased Eurofins (Celle Lévescault)
T10 sequence (O43781 1-588): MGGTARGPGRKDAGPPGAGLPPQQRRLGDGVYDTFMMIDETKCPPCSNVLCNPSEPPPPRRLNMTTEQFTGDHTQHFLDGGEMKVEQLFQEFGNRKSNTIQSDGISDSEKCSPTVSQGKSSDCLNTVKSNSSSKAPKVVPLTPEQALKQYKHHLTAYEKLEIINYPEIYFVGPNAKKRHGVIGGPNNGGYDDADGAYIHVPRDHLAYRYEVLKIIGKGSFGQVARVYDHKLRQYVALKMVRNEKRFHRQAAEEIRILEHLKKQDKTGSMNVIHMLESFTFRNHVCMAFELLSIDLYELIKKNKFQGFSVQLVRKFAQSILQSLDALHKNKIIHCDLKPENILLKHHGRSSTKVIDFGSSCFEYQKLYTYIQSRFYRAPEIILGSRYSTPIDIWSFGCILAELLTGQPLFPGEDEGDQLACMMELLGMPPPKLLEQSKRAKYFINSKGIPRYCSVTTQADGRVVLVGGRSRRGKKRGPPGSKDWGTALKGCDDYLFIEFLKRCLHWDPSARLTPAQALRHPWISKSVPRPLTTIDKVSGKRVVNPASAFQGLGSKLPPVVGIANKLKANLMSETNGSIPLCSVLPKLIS
In short: as §1

[11] = target: T11, 380 human recombinant protein kinases (Homo sapiens, UniProt Q5TCY1); conditions: TTBK1(h), read-out: Inhibition rate (%)
T11 construct: purchased Eurofins (Celle Lévescault)
In short: as §1

[12] = target: T12, 380 human recombinant protein kinases (Homo sapiens, UniProt Q00536); conditions: CDK16/cyclinY(h), read-out: Inhibition rate
T12 construct: purchased Eurofins (Celle Lévescault)
T12 sequence (Q00536 whole entry): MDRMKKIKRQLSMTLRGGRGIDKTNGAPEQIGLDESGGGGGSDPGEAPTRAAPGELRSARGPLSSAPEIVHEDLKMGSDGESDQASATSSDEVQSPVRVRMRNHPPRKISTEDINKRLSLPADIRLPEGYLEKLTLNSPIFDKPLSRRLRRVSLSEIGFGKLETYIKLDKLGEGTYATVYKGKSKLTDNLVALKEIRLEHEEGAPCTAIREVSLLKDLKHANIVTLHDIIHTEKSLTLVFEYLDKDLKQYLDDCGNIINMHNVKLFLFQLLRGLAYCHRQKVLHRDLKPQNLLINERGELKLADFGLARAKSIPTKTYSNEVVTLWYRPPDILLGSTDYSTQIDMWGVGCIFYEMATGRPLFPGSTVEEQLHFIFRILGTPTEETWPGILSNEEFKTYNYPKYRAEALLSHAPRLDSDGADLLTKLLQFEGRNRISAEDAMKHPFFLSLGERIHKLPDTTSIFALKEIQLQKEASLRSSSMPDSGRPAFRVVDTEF
In short: as §1

[13] = target: T13, 380 human recombinant protein kinases (Homo sapiens, UniProt Q13555); conditions: CaMKIIγ(h), read-out: Inhibition rate
T13 construct: purchased Eurofins (Celle Lévescault)
In short: as §1

[14] = target: T14, 380 human recombinant protein kinases (Homo sapiens, UniProt Q8IY84); conditions: NIM1(h), read-out: Inhibition rate
T14 construct: purchased Eurofins (Celle Lévescault)
T14 sequence (Q8IY84 whole entry): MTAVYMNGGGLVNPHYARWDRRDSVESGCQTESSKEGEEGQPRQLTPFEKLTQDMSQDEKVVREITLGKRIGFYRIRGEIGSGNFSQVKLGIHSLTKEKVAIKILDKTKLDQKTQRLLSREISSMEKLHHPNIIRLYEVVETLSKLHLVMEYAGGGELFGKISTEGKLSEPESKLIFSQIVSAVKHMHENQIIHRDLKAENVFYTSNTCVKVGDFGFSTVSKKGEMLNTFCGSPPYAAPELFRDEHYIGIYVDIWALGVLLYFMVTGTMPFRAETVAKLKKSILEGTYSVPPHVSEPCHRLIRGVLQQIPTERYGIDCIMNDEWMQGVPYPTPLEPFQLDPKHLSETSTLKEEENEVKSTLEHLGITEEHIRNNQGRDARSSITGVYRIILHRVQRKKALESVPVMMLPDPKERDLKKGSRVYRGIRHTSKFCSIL
In short: as §1

[15] = target: T15, 380 human recombinant protein kinases (Homo sapiens, UniProt Q05397); conditions: FAK(h), read-out: Inhibition rate
T15 construct: purchased Eurofins (Celle Lévescault)
T15 sequence (Q05397 whole entry): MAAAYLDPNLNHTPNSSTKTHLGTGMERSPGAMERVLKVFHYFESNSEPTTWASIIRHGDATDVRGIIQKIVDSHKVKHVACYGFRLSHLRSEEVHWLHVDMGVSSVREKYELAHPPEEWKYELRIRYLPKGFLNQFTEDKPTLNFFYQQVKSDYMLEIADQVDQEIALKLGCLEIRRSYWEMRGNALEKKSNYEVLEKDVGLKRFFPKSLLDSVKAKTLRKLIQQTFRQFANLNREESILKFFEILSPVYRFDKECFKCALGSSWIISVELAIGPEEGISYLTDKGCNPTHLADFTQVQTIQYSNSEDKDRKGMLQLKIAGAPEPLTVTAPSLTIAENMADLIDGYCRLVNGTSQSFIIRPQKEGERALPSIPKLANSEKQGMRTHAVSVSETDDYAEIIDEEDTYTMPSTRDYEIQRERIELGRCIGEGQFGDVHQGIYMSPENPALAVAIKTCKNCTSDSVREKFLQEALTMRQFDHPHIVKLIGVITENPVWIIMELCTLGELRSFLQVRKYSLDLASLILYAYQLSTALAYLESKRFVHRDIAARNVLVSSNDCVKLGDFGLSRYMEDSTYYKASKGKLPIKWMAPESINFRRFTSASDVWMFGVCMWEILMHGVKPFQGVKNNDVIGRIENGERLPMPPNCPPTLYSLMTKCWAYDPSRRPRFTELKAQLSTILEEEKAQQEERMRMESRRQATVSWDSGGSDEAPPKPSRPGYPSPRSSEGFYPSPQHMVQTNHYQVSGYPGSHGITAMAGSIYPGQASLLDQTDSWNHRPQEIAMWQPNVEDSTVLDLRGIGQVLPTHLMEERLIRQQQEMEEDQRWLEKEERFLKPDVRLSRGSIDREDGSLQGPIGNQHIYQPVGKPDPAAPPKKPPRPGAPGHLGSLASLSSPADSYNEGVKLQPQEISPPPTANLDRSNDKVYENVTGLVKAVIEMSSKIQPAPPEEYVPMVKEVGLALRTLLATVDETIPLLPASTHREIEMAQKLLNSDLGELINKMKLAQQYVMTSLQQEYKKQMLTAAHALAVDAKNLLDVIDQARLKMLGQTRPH
In short: as §1

[16] = target: T16, 380 human recombinant protein kinases (Homo sapiens, UniProt O75460); conditions: IRE1(h), read-out: Inhibition rate
T16 construct: purchased Eurofins (Celle Lévescault)
T16 sequence (O75460 19-977): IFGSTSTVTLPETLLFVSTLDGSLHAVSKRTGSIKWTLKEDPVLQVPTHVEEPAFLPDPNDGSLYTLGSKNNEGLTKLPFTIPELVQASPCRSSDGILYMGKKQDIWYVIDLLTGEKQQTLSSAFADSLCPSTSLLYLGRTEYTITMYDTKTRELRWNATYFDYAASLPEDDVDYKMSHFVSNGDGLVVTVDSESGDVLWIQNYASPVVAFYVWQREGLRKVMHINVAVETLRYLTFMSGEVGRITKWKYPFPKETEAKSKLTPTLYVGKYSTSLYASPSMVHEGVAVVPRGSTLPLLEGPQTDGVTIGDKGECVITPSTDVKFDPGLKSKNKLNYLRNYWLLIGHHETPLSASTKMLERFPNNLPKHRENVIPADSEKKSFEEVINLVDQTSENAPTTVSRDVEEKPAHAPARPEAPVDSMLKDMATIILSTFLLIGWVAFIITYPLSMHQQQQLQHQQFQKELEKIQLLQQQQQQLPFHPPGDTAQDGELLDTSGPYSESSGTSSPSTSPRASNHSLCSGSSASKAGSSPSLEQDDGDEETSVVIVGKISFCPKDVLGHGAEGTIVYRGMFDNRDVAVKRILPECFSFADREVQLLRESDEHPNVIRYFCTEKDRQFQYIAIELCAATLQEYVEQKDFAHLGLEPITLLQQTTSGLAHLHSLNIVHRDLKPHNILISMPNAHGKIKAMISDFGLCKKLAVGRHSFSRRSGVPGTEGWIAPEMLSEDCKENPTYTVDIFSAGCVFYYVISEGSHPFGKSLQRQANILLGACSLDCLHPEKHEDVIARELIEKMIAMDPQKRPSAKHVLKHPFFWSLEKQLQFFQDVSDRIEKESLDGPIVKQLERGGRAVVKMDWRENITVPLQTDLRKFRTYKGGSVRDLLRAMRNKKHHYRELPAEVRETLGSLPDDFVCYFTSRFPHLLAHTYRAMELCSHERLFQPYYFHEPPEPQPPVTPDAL
In short: as §1

`C=CC(=O)Nc1cc(-c2cc(-c3cc4c([nH]3)CCNC4=O)ccn2)ccc1OC(F)(F)F` [compound 11] gave an inhibition at 0.01 µM ([1]; 10 nM) of -2%, an inhibition at 0.1 µM ([1]; 100 nM) of -1% and an inhibition at 1 µM ([1]; 1000 nM) of -13%. For the same molecule, the inhibition at 0.01 µM ([2]; 10 nM) was -3%, the inhibition at 0.1 µM ([2]; 100 nM) was -3% and the inhibition at 1 µM ([2]; 1000 nM) was 2%. The inhibition at 0.01 µM ([3]; 10 nM) was -6%, the inhibition at 0.1 µM ([3]; 100 nM) was 5% and the inhibition at 1 µM ([3]; 1000 nM) was 27%. For the same molecule, the inhibition at 0.01 µM ([4]; 10 nM) was -22%, the inhibition at 0.1 µM ([4]; 100 nM) was -12% and the inhibition at 1 µM ([4]; 1000 nM) was -2%. It also gave an inhibition at 0.01 µM ([5]; CDK5/p25(h)) of -6%, an inhibition at 0.1 µM ([5]; CDK5/p25(h)) of 2% and an inhibition at 1 µM ([5]; CDK5/p25(h)) of -2%. It also gave an inhibition at 0.01 µM ([5]; CDK5/p35(h)) of -7%, an inhibition at 0.1 µM ([5]; CDK5/p35(h)) of -6% and an inhibition at 1 µM ([5]; CDK5/p35(h)) of 5%. For the same molecule, the inhibition at 0.01 µM ([6]; CK2(h)) was -3%, the inhibition at 0.1 µM ([6]; CK2(h)) was -1% and the inhibition at 1 µM ([6]; CK2(h)) was 0%. For the same molecule, the inhibition at 0.01 µM ([6]; CK2α1(h)) was -9%, the inhibition at 0.1 µM ([6]; CK2α1(h)) was -2% and the inhibition at 1 µM ([6]; CK2α1(h)) was 9%. For the same molecule, the inhibition at 0.01 µM ([7]; 10 nM) was -3%, the inhibition at 0.1 µM ([7]; 100 nM) was -4% and the inhibition at 1 µM ([7]; 1000 nM) was -2%. It also gave an inhibition at 0.01 µM ([8]; 10 nM) of 0%, an inhibition at 0.1 µM ([8]; 100 nM) of -5% and an inhibition at 1 µM ([8]; 1000 nM) of -7%. The inhibition at 0.01 µM ([9]; 10 nM) was -4%, the inhibition at 0.1 µM ([9]; 100 nM) was -2% and the inhibition at 1 µM ([9]; 1000 nM) was -5%. It also gave an inhibition at 0.01 µM ([10]; 10 nM) of 34%, an inhibition at 0.1 µM ([10]; 100 nM) of 83% and an inhibition at 1 µM ([10]; 1000 nM) of 95%. It also gave an inhibition at 0.01 µM ([11]; 10 nM) of -2%, an inhibition at 0.1 µM ([11]; 100 nM) of -5% and an inhibition at 1 µM ([11]; 1000 nM) of 3%. For the same molecule, the inhibition at 0.01 µM ([12]; 10 nM) was -1%, the inhibition at 0.1 µM ([12]; 100 nM) was 7% and the inhibition at 1 µM ([12]; 1000 nM) was -13%. The inhibition at 0.01 µM ([13]; 10 nM) was -5%, the inhibition at 0.1 µM ([13]; 100 nM) was 6% and the inhibition at 1 µM ([13]; 1000 nM) was 18%. It also gave an inhibition at 0.01 µM ([14]; 10 nM) of -4%, an inhibition at 0.1 µM ([14]; 100 nM) of -7% and an inhibition at 1 µM ([14]; 1000 nM) of -3%. For the same molecule, the inhibition at 0.01 µM ([15]; 10 nM) was -10%, the inhibition at 0.1 µM ([15]; 100 nM) was -1% and the inhibition at 1 µM ([15]; 1000 nM) was 1%. For the same molecule, the inhibition at 0.01 µM ([16]; 10 nM) was 0%, the inhibition at 0.1 µM ([16]; 100 nM) was -2% and the inhibition at 1 µM ([16]; 1000 nM) was 0%.
